The source of these data is ChEMBL document CHEMBL4184210, “Optimization of novel monobactams with activity against carbapenem-resistant Enterobacteriaceae - Identification of LYS228” (Bioorg Med Chem Lett, 2018).

In general, half-life refers to the time needed for the level to fall by half in the phase considered.

Values after ≈ are worked out from the molar mass of the structure shown.

Series [1] concerns Escherichia coli. Nature of the series: Antimicrobial activity against Escherichia coli expressing beta-lactamase KPC-2 by CLSI broth microdilution method. The series is classed as functional. Background: Broth dilution looks for growth in wells or tubes with falling amounts of substance.
Series [2] relates to Escherichia coli. Nature of the series: microbe, parasite or virus in culture.
Description: Antimicrobial activity against wild type Escherichia coli by CLSI broth microdilution method
Series [3] has as its system Escherichia coli. The series can be described thus: microbe, parasite or virus in culture. This is another data set of the same source.
Description: Antimicrobial activity against Escherichia coli expressing beta-lactamase CTXM-15 by CLSI broth microdilution method
The test system of series [4] is Escherichia coli. Nature of the series: microbe, parasite or virus in culture. The source holds these as a separate data set.
Description: Antimicrobial activity against Escherichia coli expressing beta-lactamase SHV-12 by CLSI broth microdilution method
Series [5] relates to Escherichia coli. The series can be described thus: microbe, parasite or virus in culture. The source holds these as a separate data set.
Description: Antimicrobial activity against Escherichia coli expressing beta-lactamase TEM-10 by CLSI broth microdilution method
The subject of series [6] is Escherichia coli. The series can be described thus: microbe, parasite or virus in culture. This is another data set of the same source.
Description: Antimicrobial activity against Escherichia coli expressing beta-lactamase AmpC by CLSI broth microdilution method
Series [7] deals with Escherichia coli. Nature of the series: microbe, parasite or virus in culture. The source holds these as a separate data set.
Description: Antimicrobial activity against Escherichia coli expressing beta-lactamase CMY-2 by CLSI broth microdilution method
The nature of series [8]: Chemical stability in pH 7.4 potassium phosphate buffer assessed as half life for compound hydrolysis at 37 degC by UPLC and mass spectrometry. The series is classed as physicochemical.

Regarding `Nc1nc(/C(=N/OC2(C(=O)O)CC2)C(=O)N[C@@H]2C(=O)N(S(=O)(=O)O)[C@@H]2Cn2cncn2)cs1` (stereo in doubt), the MIC in series [1] was found to be 0.25 µg/mL (≈ 0.5 µM); in series [2], 0.125 µg/mL (≈ 0.25 µM); in series [3] it was 0.125 µg/mL (≈ 0.25 µM); in series [4] it was 1 µg/mL (≈ 2 µM); in series [5] it was 0.5 µg/mL (≈ 0.999 µM); in series [6], 1 µg/mL (≈ 2 µM). Further, the MIC in series [7] was 1 µg/mL (≈ 2 µM).

Regarding `CC(C)(O/N=C(\C(=O)N[C@@H]1C(=O)N(S(=O)(=O)O)[C@@H]1CN1C[C@H](CO)OC1=O)c1csc(N)n1)C(=O)O` (stereo in doubt), the MIC in series [1] is 4 µg/mL (≈ 7.27 µM); in series [2], 2 µg/mL (≈ 3.63 µM); in series [3], 1 µg/mL (≈ 1.82 µM); in series [4], 2 µg/mL (≈ 3.63 µM); in series [5], greater than 64 µg/mL; in series [6], 2 µg/mL (≈ 3.63 µM). The MIC in series [7] is 4 µg/mL (≈ 7.27 µM). For the same molecule, the half-life in series [8] was greater than 2220 min.

As for `C[C@@H]1CN(C[C@@H]2[C@H](NC(=O)/C(=N\OC(C)(C)C(=O)O)c3csc(N)n3)C(=O)N2S(=O)(=O)O)C(=O)O1` (stereo in doubt), the MIC came out at 1 µg/mL (≈ 1.87 µM) in series [1]; 1 µg/mL (≈ 1.87 µM) in series [2]; 1 µg/mL (≈ 1.87 µM) in series [3]; 1 µg/mL (≈ 1.87 µM) in series [4]; 8 µg/mL (≈ 15 µM) in series [5]; 2 µg/mL (≈ 3.74 µM) in series [6]. Further, the MIC in series [7] came out at 4 µg/mL (≈ 7.48 µM). Moreover, in series [8], the half-life was greater than 2220 min.

Take `CC(C)(O/N=C(\C(=O)N[C@@H]1C(=O)N(S(=O)(=O)O)[C@@H]1Cn1cc(CNC(=N)N)nn1)c1csc(N)n1)C(=O)O` (stereo in doubt): the MIC in series [1] stood at 0.5 µg/mL (≈ 0.872 µM); in series [2] it was 0.25 µg/mL (≈ 0.436 µM); in series [3], 0.25 µg/mL (≈ 0.436 µM); in series [4] it was 1 µg/mL (≈ 1.74 µM); in series [5] it was 1 µg/mL (≈ 1.74 µM); in series [6], 1 µg/mL (≈ 1.74 µM). In addition, in series [7], the MIC was determined as 0.5 µg/mL (≈ 0.872 µM). In addition, the half-life in series [8] is greater than 2220 min.

In the case of `C[C@@H](O/N=C(\C(=O)N[C@@H]1C(=O)N(S(=O)(=O)O)[C@@H]1Cn1cncn1)c1csc(N)n1)C(=O)O` (stereo in doubt), the MIC was determined as 1 µg/mL (≈ 2.05 µM) in series [1]; 1 µg/mL (≈ 2.05 µM) in series [2]; 0.5 µg/mL (≈ 1.02 µM) in series [3]; 2 µg/mL (≈ 4.09 µM) in series [4]; 1 µg/mL (≈ 2.05 µM) in series [5]; 4 µg/mL (≈ 8.19 µM) in series [6]. The molecule also returned an MIC in series [7] of 16 µg/mL (≈ 32.8 µM).

As to `CC(C)(O/N=C(\C(=O)N[C@@H]1C(=O)N(S(=O)(=O)O)[C@@H]1Cn1cc(CO)nn1)c1csc(N)n1)C(=O)O` (stereo in doubt), the MIC in series [1] came out at 4 µg/mL (≈ 7.51 µM); in series [2], 0.5 µg/mL (≈ 0.939 µM); in series [3], 1 µg/mL (≈ 1.88 µM); in series [4], 16 µg/mL (≈ 30 µM); in series [5] it was 8 µg/mL (≈ 15 µM); in series [6] it was 4 µg/mL (≈ 7.51 µM). Also, the MIC in series [7] was determined as 4 µg/mL (≈ 7.51 µM). Also, in series [8], the half-life was greater than 2220 min.

Take `CC(C)(O/N=C(\C(=O)N[C@@H]1C(=O)N(S(=O)(=O)O)[C@@H]1CN1C[C@H](CN)OC1=O)c1csc(N)n1)C(=O)O` (stereo in doubt): the MIC in series [1] is 1 µg/mL (≈ 1.82 µM); in series [2], 1 µg/mL (≈ 1.82 µM); in series [3] it was 1 µg/mL (≈ 1.82 µM); in series [4], 1 µg/mL (≈ 1.82 µM); in series [5], 8 µg/mL (≈ 14.6 µM); in series [6], 1 µg/mL (≈ 1.82 µM). This molecule came in with an MIC in series [7] of 2 µg/mL (≈ 3.64 µM). Besides, in series [8], the half-life was greater than 2220 min.

With `Nc1nc(/C(=N/OCC(=O)O)C(=O)N[C@@H]2C(=O)N(S(=O)(=O)O)[C@@H]2Cn2cncn2)cs1` (stereo in doubt), the MIC in series [1] was determined as 0.5 µg/mL (≈ 1.05 µM); in series [2] it was 0.125 µg/mL (≈ 0.263 µM); in series [3], 0.25 µg/mL (≈ 0.527 µM); in series [4] it was 16 µg/mL (≈ 33.7 µM); in series [5] it was 1 µg/mL (≈ 2.11 µM); in series [6] it was 16 µg/mL (≈ 33.7 µM). In addition, the MIC in series [7] worked out at 8 µg/mL (≈ 16.9 µM).

Turning to `CC(C)(O/N=C(\C(=O)N[C@@H]1C(=O)N(S(=O)(=O)O)[C@@H]1CN1C[C@@H](CNC(=N)N)OC1=O)c1csc(N)n1)C(=O)O` (stereo in doubt), the MIC in series [1] worked out at 1 µg/mL (≈ 1.69 µM); in series [2] it was 0.25 µg/mL (≈ 0.423 µM); in series [3], 0.125 µg/mL (≈ 0.211 µM); in series [4] it was 0.25 µg/mL (≈ 0.423 µM); in series [5], 2 µg/mL (≈ 3.38 µM); in series [6], 0.25 µg/mL (≈ 0.423 µM). This molecule also gave an MIC in series [7] of 0.25 µg/mL (≈ 0.423 µM). For the same molecule, the half-life in series [8] is greater than 2220 min.

As for `CC(C)(O/N=C(\C(=O)N[C@@H]1C(=O)N(S(=O)(=O)O)[C@@H]1Cn1ncnc1CN)c1csc(N)n1)C(=O)O` (stereo in doubt), the MIC in series [1] is 4 µg/mL (≈ 7.53 µM); in series [2] it was 2 µg/mL (≈ 3.76 µM); in series [3] it was 2 µg/mL (≈ 3.76 µM); in series [4] it was 4 µg/mL (≈ 7.53 µM); in series [5], 4 µg/mL (≈ 7.53 µM); in series [6] it was 8 µg/mL (≈ 15.1 µM). In series [7], this molecule came in with an MIC of 8 µg/mL (≈ 15.1 µM). Also, the half-life in series [8] was greater than 2220 min.

As for `C[C@@H](O)[C@H]1C(=O)N2C(C(=O)O)=C(SCCN=CN)C[C@H]12` [IMIPENEM ANHYDROUS], in series [8], the half-life is 2760 min.
